Like-named read-outs stand apart in the source and are kept apart here.
Experiments:
[1] = rcm bond
[2] = from C=Cc1ccc2ccc([C@@H](C)OC(=O)[C@@H]3CCCN(C(=O)[C@H](C)NC(=O)[C@@H](NC(=O)[C@@H](/C=C/C)CC4CC4)C(C)C)N3)nc2c1; rcm bond; 21-membered ring; Hoveyda-Grubbs II (3x20 mol%); 1,2-dichloroethane; 2.44 mM; 80.0 °C

Q: For `CC(C)[C@@H]1NC(=O)C=Cc2cc3cc(ccc3cn2)[C@@H](C)NC(=O)[C@@H]2CCCN(N2)C(=O)[C@H](C)NC1=O`, which ring closure, isolated yield ([1]; from C=Cc1cc2cc([C@@H](C)NC(=O)[C@@H]3CCCN(C(=O)[C@H](C)NC(=O)[C@@H](NC(=O)/C=C/C)C(C)C)N3)ccc2cn1, 20-membered ring, Hoveyda-Grubbs II (2 x 10 mol%), toluene, 3.86 mM) is on record?
A: Its ring closure, isolated yield is 1.2%.

Q: Which ring closure, isolated yield ([1]; from C=CCC(=O)N[C@H](C(=O)N[C@@H](C)C(=O)N1CCC[C@@H](C(=O)N[C@H](C)c2ccc3cnc(C=C)cc3c2)N1)C(C)C, 21-membered ring, Hoveyda-Grubbs II (2 x 10 mol%), toluene, 3.86 mM) does the source give for `CC(C)[C@@H]1NC(=O)CC=Cc2cc3cc(ccc3cn2)[C@@H](C)NC(=O)[C@@H]2CCCN(N2)C(=O)[C@H](C)NC1=O` here?
A: Its ring closure, isolated yield is 1%.

Q: For `CC(C)[C@@H]1NC(=O)[C@H](CC2CC2)C=Cc2ccc3ccc(nc3c2)[C@@H](C)OC(=O)[C@@H]2CCCN(N2)C(=O)[C@H](C)NC1=O`, which ring closure, yield after HPLC [2] is on record?
A: Its ring closure, yield after HPLC is 1.3%.

Q: With “(E)-pent-3-enoyl-hPhe-Ala-Piz-O-(R)-1-(3-vinyl-isoquinolin-6-yl)ethyl ester?” as the molecule, how does the ring closure, isolated yield ([1]; the molecule shown is the open-chain precursor, 21-membered ring, Hoveyda-Grubbs II (portions), chlorobenzene, 4.8 mM, 110.0 °C) read?
A: The ring closure, isolated yield was 12%.

— patent US9512175B2, “Macrocyclic inhibitors of flaviviridae viruses” (Gilead Sciences, Inc., priority 2012, dated 2016)
